Series [1] can be described thus: half life was evaluated. Type of series: ADME.
Series [2] has as its system Canis familiaris. Kind of series: Compound was evaluated for the lowest dose where fourfold elevations over basal GH levels were observed in Beagle dog model after intravenous dose of 0.025 mpk and 0.125 mpk oral dose; 6/8. Type of series: functional, Canis lupus familiaris.
Series [3] is filed under the species Canis familiaris. Kind of series: Compound was evaluated for the lowest dose where fourfold elevations over basal GH levels were observed in Beagle dog model after peroral dose of 0.25 mpk; 8/8. Type of series: functional, Canis lupus familiaris.
The species named for series [4] is Canis familiaris. Kind of series: Compound was evaluated for the lowest dose where fourfold elevations over basal GH levels were observed in Beagle dog model after peroral dose of 0.5 mpk; 2/2. Type of series: functional, Canis lupus familiaris.
The species named for series [5] is Canis familiaris. Kind of series: Compound was evaluated for the lowest dose where fourfold elevations over basal GH levels were observed in Beagle dog model after peroral dose of 0.25 mpk; 1/1. Type of series: functional, Canis lupus familiaris.
For series [6], the species on record is Canis familiaris. Kind of series: Compound was evaluated for the lowest dose where fourfold elevations over basal GH levels were observed in Beagle dog model after peroral dose of 0.5 mpk; 1/2. The format is functional, Canis lupus familiaris.
Series [7] is filed under the species Canis familiaris. Kind of series: Compound was evaluated for the lowest dose where fourfold elevations over basal GH levels were observed in Beagle dog model after peroral dose of 0.25 mpk; 2/5. Type of series: functional, Canis lupus familiaris.
For series [8], the species on record is Canis familiaris. Kind of series: Compound was evaluated for the lowest dose where fourfold elevations over basal GH levels were observed in Beagle dog model after peroral dose of 0.5 mpk; 4/4. The format is functional, Canis lupus familiaris.
Series [9] in a line: Compound was evaluated for its bioavailability in the dogs. Conditions: dog, in vivo; read-out: Bioavailabiility. Type of series: ADME, organism-based, Canis lupus familiaris.
Series [10] in a line: Compound was evaluated for its bioavailability in the rats. The format is ADME, organism-based. Conditions: rat, in vivo; read-out: Bioavailabiility.
Series [11] can be described thus: Compound was evaluated for its absorption in the rats. Type of series: ADME, organism-based. Conditions: rat, in vivo; read-out: Absorption.
The subject of series [12] is Canis familiaris. Kind of series: Compound was evaluated for percentage of growth hormone of day1 response, after chronic oral dosing at 0.5 mpk on day 4. Type of series: functional, Canis lupus familiaris.
The subject of series [13] is Canis familiaris. Kind of series: Compound was evaluated for percentage of growth hormone of day1 response, after chronic oral dosing at 1.0 mpk on day 4. Type of series: functional, Canis lupus familiaris.
Series [14] concerns Canis familiaris. Kind of series: Compound was evaluated for the lowest dose where fourfold elevations over basal GH levels were observed in Beagle dog model after intravenous dose of 0.025 mpk and 0.125 mpk oral dose; 1/2. The format is functional, Canis lupus familiaris.
For series [15], the species on record is Canis familiaris. Kind of series: Compound was evaluated for the lowest dose where fourfold elevations over basal GH levels were observed in Beagle dog model after peroral dose of 0.25 mpk; 5/8. The format is functional, Canis lupus familiaris.
The subject of series [16] is Canis familiaris. Kind of series: Compound was evaluated for percentage of increase in IGF-1 levels, after chronic oral dosing at 0.5 mpk on day 4. The format is functional, Canis lupus familiaris.
In series [17] the test system is Canis familiaris. Kind of series: Compound was evaluated for percentage of increase in IGF-1 levels, after chronic oral dosing at 1.0 mpk on day 4. Type of series: functional, Canis lupus familiaris.

For the molecule `CC(C)(N)C(=O)N[C@H](COCc1ccccc1)C(=O)N1CCC2(CC1)CN(S(C)(=O)=O)c1ccccc12.Cl`, the half-life (as a rule, the time needed for the level to fall by half in the phase considered) in [1] was 4.8 h. Also, the Responders with Canis familiaris [2] stood at 6; in the series listed under Canis familiaris [3], 8.
In the series listed under Canis familiaris [4], `CC(C)(N)C(=O)N[C@H](CCCc1ccccc1)C(=O)N1CCC2(CC1)C[C@@H](CC(=O)O)c1ccccc12.Cl` registered a Responders of 2.
Turning to `CC(C)(N)C(=O)N[C@H](CCCc1ccccc1)C(=O)N1CCC2(CC1)C[C@H](C(=O)O)c1ccccc12.Cl`, the half-life in series [1] is 1.7 h. Further, the Responders in the series filed under Canis familiaris [5] and in the series filed under Canis familiaris [6] was 1 in each case.
In the case of `CCOC(=O)C[C@@H]1CC2(CCN(C(=O)[C@@H](CCCc3ccccc3)NC(=O)C(C)(C)N)CC2)c2ccccc21.Cl`, the Responders came out at 2 in the series listed under Canis familiaris [7] and 4 in the series listed under Canis familiaris [8].
Consider `CCOC(=O)[C@H]1CC2(CCN(C(=O)[C@@H](CCCc3ccccc3)NC(=O)C(C)(C)N)CC2)c2ccccc21.Cl`, for which the results for the bioavailability in series [9] and in series [10] were 11.8% and 4.5%, respectively. Further, in series [11], the Fa was over 50%. Moreover, the GH is 65% with Canis familiaris [12] and 80% in the series on Canis familiaris [13]. Further, the Responders in the series with Canis familiaris [14] was 1; in the series listed under Canis familiaris [15] it was 5. Besides, the values for the Increase in the series with Canis familiaris [16] and in the series with Canis familiaris [17] were 65% and 45%, respectively.

Values taken from ChEMBL document CHEMBL1130305, “The design and synthesis of orally active short duration spiroindane growth hormone secretagogues” (Bioorg Med Chem Lett, 1997).
